Experimental data as given in patent US20240196946A1, “METABOLICALLY MODIFIED VANILLA BEANS AND METHODS FOR PRODUCING SAME” (VANILLA TECHNOLOGIES LTD., priority 2021, published 2024).

Legend:
vanilla beans = test: Vanillin content analysis by spectrophotometry of treated, cured vanilla beans; design: species or system Vanilla planifolia; conditions: relative to water control; FIG. 1; concentrations as in Table 1
Experimental: Target chemical compounds (set forth in table 1 below) were dissolved in water and pH adjusted to pH-7. Green beans cut into 1 cm pieces were placed in a 50 ml tube or intact beans placed in a bucket. A 10 ml solution containing one of the compounds indicated in Table 1 dissolved in water and 0.1% of each of the four surfactants tween 20, tween 80, span 20, and span 80 was added per each bean. The beans were incubated with the solution for 0.5-36 hours (e.g. overnight) at room temperature. The solution was the filtered out, the beans washed, and placed in a drying chamber with controlled temperature and humidity conditions to provide killing and curing as known in the art. The beans were weighted daily and at a 25-30% of their original weight, subjected to vanillin content analysis by spectrophotometry, as well as to a flavor test by a sensory panel.

Vanilla planifolia beans = test: GC-MS headspace (SPME) analysis of treated vanilla beans (Example 2); conditions: for constituents delivering vinegar anisic and floral flavors (acetic acid, creosol and acetoin): 3C; for vanillin levels: GC-MS headspace vs control, FIG. 3A-3E; for Phenylethyl Alcohol and 3-Phenyl-2-propenoic acid methyl ester / compounds giving a vinegar anisic and creamy flavor (acetic acid, creosol and 2,3-Butanediol): FIG. 3E, glutathione results not shown
Excerpt: The treated vanilla beans were further analyzed by Gas Chromatography-Mass Spectrometry (GC-MS) in headspace mode with solid phase micro extraction (SPME) fiber. Compound identification was done by retention index and mass spectra. Compound flavor was obtained by searching a compound name in the following databases: https://pubchem.ncbi.nlm.nih.gov/ and […].com/.

Row | Compound | vanillin content (abundance of vanillin) (vanilla beans) | levels of constituents resulting in a nutty flavor (3-hydroxy-Benzaldehyde) (Vanilla planifolia beans; FIG. 3B) | constituents delivering vinegar anisic and floral flavors (acetic acid, creosol and acetoin) (Vanilla planifolia beans; FIG. 3B) | vanillin levels (Vanilla planifolia beans) | Phenylethyl Alcohol and 3-Phenyl-2-propenoic acid methyl ester (Vanilla planifolia beans) | compounds giving a vinegar anisic and creamy flavor (acetic acid, creosol and 2,3-Butanediol) (Vanilla planifolia beans) | acetic acid, 2,3-Butanediol and acetoin (Vanilla planifolia beans; FIG. 3D) | level of compounds giving anisic and floral flavors (creosol and benzeneacetaldehyde) (Vanilla planifolia beans; FIG. 3D) | levels of constituents delivering a nutty coffee flavor (3-hydroxy-Benzaldehyde and 2-methyl-Butanal) (Vanilla planifolia beans; FIG. 3C)
1 | O=C(O)c1ccccc1O [Salicylic acid] | large increase | increased | decrease | marked increase | – | – | – | – | –
2 | N[C@@H](CCC(=O)N[C@@H](CS)C(=O)NCC(=O)O)C(=O)O [L- glutathione] | reduced vanillin content | – | – | increase | induced the formation | reduced abundance | – | – | –
3 | CC(=O)C(=O)O [Pyruvic acid] | – | – | – | increase | – | – | formation | decreasing | –
4 | N[C@@H](Cc1ccccc1)C(=O)O [L-Phenylalanine] | reduced vanillin content | – | – | increase | induced the formation | reduced abundance | – | – | –
5 | Chitosan | – | – | decrease | milder increase | – | – | – | – | increased
